Data as given in US5242945A, “Tetronic and thiotetronic acid derivatives as phospholipase A2 inhibitors” (American Home Products Corporation, priority 1991, dated 1993).

Experiments:
[1] = tested on: LTB4 biosynthesis in purified human neutrophils; assay: LTB4 biosynthesis in human polymorphonuclear neutrophils (in vitro phospholipase A2 assay); type: cell-based; settings: Neutrophil, human PMN
Description: The compounds of the invention are tested in an in vitro phospholipase A2 assay to determine the ability of the compounds to inhibit the biosynthesis of platelet-activating factor and LTB4 in purified human neutrophils.
A leukocyte enriched blood sample obtained from a healthy donor is procured by leukophoresis using a Haemonetics model 30+ blood processor (Biological Specialties, Inc., Lansdale, Penn.). The top "platelet-rich" layer is removed after a low speed spin (35 xg, 15 min, 25° C.) of the sample. The remaining cell suspension is centrifuged (400 xg, 10 min, 25° C.) to sediment the remaining cells. The supernatant is discarded and the cell pellet resuspended in 120 ml HBSS (without Ca^++ /Mg^++). The cell suspension is subjected to ficoll-hypaque sedimentation (Histopaque 1077, 400 xg, 30 min, 25° C.). Contaminating erythrocytes are lysed by hypotonic shock (1 min). The cells are then washed once with 40 ml of HBSS and resuspended with HBSS (without Ca^++ /Mg^++) to a concentration of 2.5×10^7 cells/ml for further use. Greater than 95% purity is obtained, as assessed by microscopic examination.
One ml of human PMN (2.5×10^7 cells/ml) is incubated with vehicle or drugs (10 μl) for 10 minutes at 30° C. After preincubation, an equal volume of HBSS (1 ml) containing 2.4 mM CaCl2, 6 μM calcium ionophore A23187 and 50 μCi [^3 H]-acetate is then incubated at 30° C. for 15 minutes. An aliquot (100 μl) of the reaction mixture is taken out and mixed with 900 μl of 15% ethanol. LTB4 is extracted by using solid phase extraction on reverse phase C18 columns to remove excess [^3 H]-acetate and PAD. The C18 column is prewashed once with 2 ml of ethanol and water. The sample aliquot is acidified with 0.1N HCl to pH 3 before applying to the column. The column is then washed with 2 ml of water followed by 2 ml of 15% ethanol and 2 ml of petroleum ether to remove excess labeled acetate. The sample is eluted with 2 ml of ethyl acetate. The collected samples are dried with nitrogen and resuspended in 0.5 ml RIA buffer. The quantity of LTB4 in the sample is obtained from RIA determination. For PAF determination, the reaction is terminated by addition of 5 ml chloroform:methanol:acetic acid (2:1:0.04, v/v/v). [^3 H]-PAF is obtained by Bligh and Dyer extraction. The chloroform phase is removed and dried under nitrogen. The residue is redissolved in 75 μl of chloroform:methanol (80:20, v/v). [^3 H]-PAF is resolved from other phospholipids by TLC on RPC18 plates with a solvent system of chloroform:methanol:water (2:3:1, v/v/v) and is quantitated using a Berthold automated TLC linear analyzer.
Data presented are the mean +/- s.d. of the values relative to control A23187 stimulated cells for each experiment assayed in triplicate. Percent inhibition when used is calculated as:
% Inhibition=100-[(x.div.Control)×100].
Dose response analysis is performed by non-linear regression analysis for curve fitting and IC50 determination.

human platelet PLA2 = target: T1, human platelet PLA2 (Homo sapiens, UniProt P14555); assay: in vitro isolated phospholipase A2 assay, human platelet PLA2; type: biochemical; settings: for inhibition at 10 µM: + values given without explanation, read-out: % Inhibition HP (human platelet); for IC50: Table IV, read-out: IC50 HP (human platelet)
T1 construct: platelet acid extract PLA2; from tissue; host or cells: human platelets, semipurified acid extract
T1 sequence (P14555 21-144): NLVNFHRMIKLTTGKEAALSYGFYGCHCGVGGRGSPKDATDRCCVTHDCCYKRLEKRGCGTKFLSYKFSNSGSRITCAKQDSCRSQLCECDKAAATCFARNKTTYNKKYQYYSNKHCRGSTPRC
Summary of the method: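 PLA2 from semipurified human platelet acid extract or purified human synovial fluid, preincubated 30 min at room temperature with compound. ³H-arachidonate-labelled E. coli substrate then added in Tris-HCl pH 7.5, with enzyme giving about 12% hydrolysis. Reaction ran 10 min at 37° C; released arachidonic acid recovered on NH2 columns and measured by β-counting.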

TPA-induced ear edema = assay: 12-o-tetradecanoylphorbol acetate (TPA)-induced murine ear edema assay; type: in vivo, mouse (Swiss Webster); settings: TPA; for ED50: Mus musculus, sc, 4 h, read-out: Subcutaneous ED50; for Subcutaneous % Inhibition at 50 m/kg / ED50: subcutaneous
Description: The ability of the compounds of the invention to inhibit inflammatory responses is examined in the in vivo arachidonic acid (AA)/12-o-tetradecanoylphorbol acetate (TPA)-induced murine ear edema assay.
Swiss Webster female mice (Buckshire), approximately 8 weeks old are placed into plastic boxes in groups of six. Eight groups of mice receive AA topically on the right ear, and another 8 groups receive TPA topically on the right ear. AA and TPA are dissolved in acetone at concentrations of 100 mg/ml and 100 μg/ml respectively. The phlogistics are applied to the right ear by the means of an automatic pipet. Volumes of 10 μl are applied to the inner and outer surfaces of the ear. Each mouse receives either 2 mg/ear AA or 2 μg/ear TPA. The left ear (control) receives acetone delivered in the same manner. Topical and subcutaneous dosing regimens are as follows 1) drugs are given 30 minutes prior to AA treatment and 2) drugs are given 30 minutes after treatment with TPA.
Measurements are taken with Oditest calipers, 0-10 mm with 0.01 graduations. The right and left ears are measured after 1 hr AA-induced inflammation and 4 hours after TPA-induced inflammation.
The difference between right and left ear thickness is calculated and the significance is determined by a one way analysis of variance with Dunnett's comparisons to control (P=0.05). Drug effects are expressed as a percent change from control values: [formula]

## CCCCCCCCCC(=O)C1=C(O)COC1=O [Example 1, 4-Hydroxy-3-(1-oxodecyl)-2(5H)-furanone]
[1]
  inhibition at 10 µM: 37%
  inhibition at 25 µM: 46%
Human platelet PLA2
  inhibition at 10 µM: 14.9%
TPA-induced ear edema; on line of vehicle acetone
  Subcutaneous % Inhibition at 50 m/kg: 23%
TPA-induced ear edema; vehicle acetone
  Topical % Inhibition at 200 μg: 31%

## CCCCCCCC/C=C\CCCCCCCC(=O)C1=C(O)COC1=O [Example 9, (Z)-4-Hydroxy-3-(1-oxo-9-octadecenyl)-2(5H)-furanone]
[1]
  inhibition at 50 µM: 100%
Human platelet PLA2
  inhibition at 10 µM: 18.5%
TPA-induced ear edema; on line of vehicle EPW
  Subcutaneous % Inhibition at 50 m/kg: 28%
TPA-induced ear edema; on line of vehicle acetone
  Subcutaneous % Inhibition at 50 m/kg: 7%
TPA-induced ear edema; vehicle EPW
  Topical % Inhibition at 200 μg: 56%
TPA-induced ear edema; vehicle acetone
  Topical % Inhibition at 200 μg: 42%

## CCCCC/C=C\C/C=C\CCCCCCCC(=O)C1=C(O)COC1=O [Example 14, (Z,Z)-4-Hydroxy-3-(1-oxo-9,12-octadecadienyl)-2(5H)-furanone]
[1]
  inhibition at 10 µM: 30%
  inhibition at 25 µM: -5%
Human platelet PLA2
  IC50: 1.7 µM
  inhibition at 10 µM: 44%
TPA-induced ear edema
  ED50: 118 mg/kg
TPA-induced ear edema; on line of vehicle EPW
  Subcutaneous % Inhibition at 50 m/kg: 37%
TPA-induced ear edema; on line of vehicle acetone
  Subcutaneous % Inhibition at 50 m/kg: 21%
TPA-induced ear edema; vehicle EPW
  Topical % Inhibition at 200 μg: 51%
TPA-induced ear edema; vehicle acetone
  Topical % Inhibition at 200 μg: 28%

## CC/C=C\C/C=C\C/C=C\CCCCCCCC(=O)C1=C(O)COC1=O [Example 15, (Z,Z,Z)-4-Hydroxy-3-(1-oxo-9,12,15-octadecatrienyl)-2(5H)-furanone]
[1]
  inhibition at 50 µM: 68%
Human platelet PLA2
  inhibition at 10 µM: 30%
TPA-induced ear edema; vehicle acetone
  Topical % Inhibition at 200 μg: 34%

## CCCCCCCCCCC/C=C\CCCCC(=O)C1=C(O)COC1=O [Example 18, (Z)-4-Hydroxy-3-(1-oxo-6-octadecenyl)-2(5H)-furanone]
[1]
  inhibition at 25 µM: 83%
Human platelet PLA2
  inhibition at 10 µM: 46%
TPA-induced ear edema; on line of vehicle EPW
  Subcutaneous % Inhibition at 50 m/kg: 28%
TPA-induced ear edema; on line of vehicle acetone
  Subcutaneous % Inhibition at 50 m/kg: 37%
TPA-induced ear edema; vehicle EPW
  Topical % Inhibition at 200 μg: 53%
TPA-induced ear edema; vehicle acetone
  Topical % Inhibition at 200 μg: 1%

## CCCCC/C=C\C/C=C\C/C=C\CCCCC(=O)C1=C(O)COC1=O [Example 20, (Z,Z,Z)-4-Hydroxy-3-(1-oxo-6,9,12-octadecatrienyl)-2(5H)-furanone]
[1]
  inhibition at 50 µM: 95%
Human platelet PLA2
  inhibition at 10 µM: 62%
TPA-induced ear edema
  ED50: 31 mg/kg
TPA-induced ear edema; on line of vehicle acetone
  Subcutaneous % Inhibition at 50 m/kg: 76%
TPA-induced ear edema; vehicle EPW
  Topical % Inhibition at 200 μg: 81%
TPA-induced ear edema; vehicle acetone
  Topical % Inhibition at 200 μg: 80%

## CCCCCC1CC1CC1CC1CCCCCCCC(=O)C1=C(O)COC1=O (centres unmarked) [Example 22, 4-Hydroxy-3-[1-oxo-8-[2-[(2-pentylcyclopropyl)methyl]cyclopropyl]octyl]-2(5H)-furanone]
[1]
  inhibition at 10 µM: 93%
  inhibition at 25 µM: 91%
Human platelet PLA2
  IC50: 13.1 µM
  inhibition at 10 µM: 71%
TPA-induced ear edema; on line of vehicle acetone
  Subcutaneous % Inhibition at 50 m/kg: 36%
TPA-induced ear edema; vehicle acetone
  Topical % Inhibition at 200 μg: 40%

## CCCC/C=C\CCCCCCCC(=O)C1=C(O)COC1=O [Example 25, 4-Hydroxy-3-((Z)-1-oxo-9-tetradecenyl)-2(5H)-furanone]
[1]
  inhibition at 10 µM: 74%
  inhibition at 50 µM: 97%
Human platelet PLA2
  IC50: 26.7 µM
  inhibition at 10 µM: 58.3%
TPA-induced ear edema; on line of vehicle acetone
  Subcutaneous % Inhibition at 50 m/kg: 64%
TPA-induced ear edema; vehicle acetone
  Topical % Inhibition at 200 μg: 30%
TPA-induced ear edema; vehicle not given
  Topical % Inhibition at 200 μg: 86%

## O=C(CCCCCCC/C=C\c1ccc(Cl)cc1)C1=C(O)COC1=O [Example 35, 3-[(Z)-10-(4-chlorophenyl)-1-oxo-9-decenyl]-4-hydroxy-2(5H)-furanone]
[1]
  inhibition at 10 µM: 81.6%
  inhibition at 50 µM: 98.5%
Human platelet PLA2
  IC50: 7.5 µM
  inhibition at 10 µM: 68.6%
TPA-induced ear edema; vehicle acetone
  Topical % Inhibition at 200 μg: 39%

## CCCCC/C=C\C/C=C\CCCCCCCC(=O)C1=C(O)CSC1=O [Example 46, 4-Hydroxy-3[(Z,Z)-1-oxo-9,12-octadecadienyl]-2(5H)-thiophenone]
[1]
  inhibition at 50 µM: 39%
Human platelet PLA2
  inhibition at 10 µM: 16.4%
TPA-induced ear edema
  ED50: 46 mg/kg
TPA-induced ear edema; on line of vehicle acetone
  Subcutaneous % Inhibition at 50 m/kg: 73%
TPA-induced ear edema; vehicle EPW
  Topical % Inhibition at 200 μg: 82%
TPA-induced ear edema; vehicle acetone
  Topical % Inhibition at 200 μg: 41%

## CCCCCCCC/C=C\CCCCCCCC(=O)C1=C(O)CSC1=O [Example 47, 4-Hydroxy-3-[(Z)-1-oxo-9-octadecenyl]-2(5H)-thiophenone]
[1]
  inhibition at 50 µM: 47%
Human platelet PLA2
  inhibition at 10 µM: 13.8%
TPA-induced ear edema; on line of vehicle acetone
  Subcutaneous % Inhibition at 50 m/kg: 77%
TPA-induced ear edema; vehicle EPW
  Topical % Inhibition at 200 μg: 69%
TPA-induced ear edema; vehicle acetone
  Topical % Inhibition at 200 μg: 74%

## CCCC/C=C\CCCCCCCC(=O)C1=C(O)CSC1=O [Example 48, 4-Hydroxy-3-[(Z)-1-oxo-9-tetra-decenyl]-2(5H)-thiophenone]
[1]
  inhibition at 25 µM: 86%
Human platelet PLA2
  inhibition at 10 µM: 1.1%
TPA-induced ear edema; no vehicle on line
  Subcutaneous % Inhibition at 50 m/kg: 58%

## CCCCC/C=C\C/C=C\C/C=C\CCCCC(=O)C1=C(O)CSC1=O [Example 50, 4-Hydroxy-3-[(Z,Z,Z)-1-oxo-6,9,12-octadecatrienyl]-2(5H)-thiophenone]
[1]
  inhibition at 25 µM: 100%
Human platelet PLA2
  inhibition at 10 µM: 14.1%
TPA-induced ear edema
  ED50: 19 mg/kg
TPA-induced ear edema; no vehicle on line
  Subcutaneous % Inhibition at 50 m/kg: 78%

## CCCCCCCCCCC/C=C\CCCCC(=O)C1=C(O)CSC1=O [Example 51, 4-Hydroxy-3-[(Z)-1-oxo-6-octadecenyl]-2(5H)-thiophenone]
Human platelet PLA2
  inhibition at 10 µM: 15.2%
TPA-induced ear edema; no vehicle on line
  Subcutaneous % Inhibition at 50 m/kg: 76%
TPA-induced ear edema; vehicle not given
  Topical % Inhibition at 200 μg: 55%
